Measured values from patent US20180245048A1, “METHODS AND COMPOSITIONS FOR EXPANSION AND DIFFERENTIATION OF SKELETAL MUSCLE STEM CELLS OR PROGENITOR CELLS” (AGENCY FOR SCIENCE, TECHNOLOGY AND RESEARCH, priority 2015, published 2018).

Tests used:
[1] = tested on: induced pluripotent stem cell-derived myoblasts; assay: PAX7 mRNA expression in induced pluripotent stem cell-derived myoblasts; format: cell-based, human; conditions: 20 ng/ml bFGF, 3 μM CHIR99021, 2.5 μg/ml DLL1, alone or combined; vs untreated control (FIG. 1)
[2] = tested on: induced pluripotent stem cell-derived myotubes; assay: qPCR screen of myogenic differentiation markers, 70 small molecules; format: cell-based, human; conditions: for MyoD, MyoG and MYHC (myosin heavy chain) expression: each individually, during drug-induced myogenesis from human iPSC (FIG. 9); for expression of differentiated myocyte markers MYOG, MYHC, MYH3, MYH8 and adult myotube markers MYH7, MYH2, MYH1: screen, vs untreated control (FIG. 9)
Protocol: FIG. 9 is a heat map showing the levels of MYOG, MYHC, MYH3, MYH8, MYH7, MYH2, MYH1 expression in induced pluripotent stem cell-derived myotubes after screening with 70 different small molecules related to the metabolomics findings, compared to an untreated control group.
Thus carnitine to facilitate fatty acid oxidation, the fatty acids linoleate, arachidonate and palmitate to fuel fatty acid oxidation were tested. It was also tested whether statin inhibitors of steroid synthesis, such as fluvastatin, and steroids like testosterone or progesterone could boost human myotube differentiation. Against this background, a variety of other small molecule drugs and metabolites were also screened, including OxPhos inhibitors and vitamins, to test their effects on myotube differentiation. A qPCR screen was then performed for various myogenic differentiation markers on human induced pluripotent stem cell-derived myoblasts exposed to these 70 conditions (FIG. 9).

[3] = tested on: human induced pluripotent stem cell-derived myoblasts; assay: qPCR screen of lineage markers (OCT3/4, NCAM, AFP, PAX7), 70 small molecules; format: cell-based; conditions: vs untreated control (FIG. 3); for PAX7 mRNA expression: during FGF/Wnt/Notch-induced myogenesis
Protocol: FIG. 3 is a heat map showing the levels of OCT3/4, NCAM, AFP and PAX7 mRNA expression in induced pluripotent stem cell-derived myoblasts after screening with 70 different small molecules related to the metabolomics findings, compared to an untreated control group.
Thus, the adenylyl cyclase agonist Forskolin was tested to induce cAMP synthesis, and cobalamin was administered to see if these compounds boosted the expansion of human myoblasts. It was also tested whether glutamine, hypoxanthine and thymidine—all of which are rate-limiting for nucleotide synthesis—could boost human myoblast expansion. Against this background, a variety of other small molecule drugs and metabolites were screened, including amino acids and fatty acids, thereby testing their effects on myoblast expansion. A real-time polymerase chain reaction (qPCR) screen was then performed for various lineage markers (pluripotency marker OCT3/4, neuromuscular marker NCAM, endoderm marker AFP, muscle marker Pax7) on human induced pluripotent stem cell-derived myoblasts exposed to these 70 conditions (FIG. 3).

Row | Molecule | MyoD, MyoG and MYHC (myosin heavy chain) expression [2] | expression of differentiated myocyte markers MYOG, MYHC, MYH3, MYH8 and adult myotube markers MYH7, MYH2, MYH1 [2] | PAX7 mRNA expression [3] | also measured
1 | Cc1cnc(-c2cnc(NCCNc3ccc(C#N)cn3)nc2-c2ccc(Cl)cc2Cl)[nH]1 [CHIR99021, 6-[[2-[[4-(2,4-dichlorophenyl)-5-(5-methyl-1H-imidazol-2-yl)-2 pyrimidinyl]amino]ethyl]amino]-3-pyridinecarbonitrile, reference compound] | – | – | – | PAX7 mRNA expression [1]: increase in PAX7 expression
2 | CC(=O)OC(CC(=O)[O-])C[N+](C)(C)C (centres unmarked) [O-acetyl-carnitine] | specifically increase | – | – | –
3 | C[N+](C)(C)CC(O)CC(=O)[O-] (centres unmarked) [carnitine] | specifically increase | increase expression | – | –
4 | NC(=O)CC[C@H](N)C(=O)O [glutamine] | – | – | specifically increase | AFP (endoderm marker) mRNA expression [3]: without increasing; NCAM (neuromuscular marker) mRNA expression [3]: increase; OCT3/4 (pluripotency marker) mRNA expression [3]: without increasing
5 | O=c1[nH]cnc2nc[nH]c12 [hypoxanthine] | – | – | specifically increase | –
6 | CCCCC/C=C\C/C=C\CCCCCCCC(=O)O [linoleic acid] | specifically increase | increase expression | – | –
7 | C[C@]12CC[C@H]3[C@@H](CCC4=CC(=O)CC[C@@]43C)[C@@H]1CC[C@@H]2O [testosterone, reference compound] | specifically increase | increase expression | – | –
8 | Cc1cn([C@H]2C[C@H](O)[C@@H](CO)O2)c(=O)[nH]c1=O [thymidine] | – | – | specifically increase | –
9 | bFGF: FGF2 (basic fibroblast growth factor), FGF signalling agonist | – | – | – | PAX7 mRNA expression [1]: increase in PAX7 expression
10 | cobalamin [vitamin B12] | – | – | increase | PAX7 mRNA expression ([3]; listed as cobalamin): specifically increase; AFP (endoderm marker) mRNA expression [3]: without increasing; NCAM (neuromuscular marker) mRNA expression [3]: increase; OCT3/4 (pluripotency marker) mRNA expression [3]: without increasing
